In US7151105B2, “Inhibitors of Hepatitis C virus RNA-dependent RNA polymerase, and compositions and treatments using the same” (Agouron Pharmaceuticals, Inc., priority 2004, dated 2006):
pIC50: −log10 of the molar value.

Biological target: T1, Recombinant HCV polymerase (Hepatitis C virus genotype 1b, UniProt P26663)
T1 construct: Recombinant HCV polymerase was tested for its ability to perform primer/template-directed transcription
Test: biochemical
Settings: inhibition of polymerase-directed transcription; 30 min at 30° C; 30 nM enzyme; cpm data in triplicate
Description: The compounds described herein were tested for activity with HCV polymerase. Recombinant HCV polymerase was tested for its ability to perform primer/template-directed transcription in assays that contained 30 mM tris-HCl pH 7.2, 10 mM MgCl2, 20 mM NaCl, 1 mM Dithiothreitol (DTT), 0.05% Tween-20, 1% glycerol, 5 pmoles biotin-dG12 (primer), 0.5 pmoles poly(rC)300 (template), 1 μM GTP, 0.1–0.3 uCi α-^32P-GTP, and 2.5 pmoles (0.15 μg) HCV polymerase protein in a final volume of 75 μL. Reactions were initiated by addition of enzyme and incubated 30 minutes at 30° C. Reactions were stopped by addition of 33 mM EDTA, and polynucleotide products were collected by filtration through Diethylaminoethyl (DE) Filtermat papers (Wallac). Unincorporated triphosphate was removed by washing the filters with 5% dibasic sodium phosphate. The filters were counted in a Packard Tri-Lux Microbeta scintillation counter (Packard Bioscience, Meriden, Conn.). Compounds to be tested were added at various concentrations, e.g., 1 μm to 50 μm, from stocks in 10% DMSO-water (final DMSO is 1% in reaction).
IC50 values were estimated from the primary cpm data (collected in triplicate) using the formula: cpm (I)=cpm (no inhibitor)(1−([I]/([I]+IC50))). […] A percent inhibition value is expressed for a compound where it was impractical to calculate an IC50 value with available data.

T1 sequence (P26663 2420-3010): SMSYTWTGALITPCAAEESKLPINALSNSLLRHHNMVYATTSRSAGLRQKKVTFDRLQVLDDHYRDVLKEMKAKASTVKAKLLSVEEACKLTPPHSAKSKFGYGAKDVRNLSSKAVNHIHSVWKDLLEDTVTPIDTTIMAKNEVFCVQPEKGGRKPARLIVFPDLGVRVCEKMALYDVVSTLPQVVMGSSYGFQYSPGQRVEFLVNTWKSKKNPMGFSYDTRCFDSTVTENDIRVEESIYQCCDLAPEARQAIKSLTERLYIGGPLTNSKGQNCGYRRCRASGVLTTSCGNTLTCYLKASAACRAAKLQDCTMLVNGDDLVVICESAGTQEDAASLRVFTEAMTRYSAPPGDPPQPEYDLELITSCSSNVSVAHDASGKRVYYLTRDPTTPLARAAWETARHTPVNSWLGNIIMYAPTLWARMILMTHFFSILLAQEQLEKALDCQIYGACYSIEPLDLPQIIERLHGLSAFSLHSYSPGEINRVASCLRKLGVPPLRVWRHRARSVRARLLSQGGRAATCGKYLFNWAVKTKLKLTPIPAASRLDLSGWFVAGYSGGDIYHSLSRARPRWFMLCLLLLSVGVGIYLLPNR

SMILES | pIC50
CC(C)(C#N)c1ncc(CCC2(C3CCCC3)CC(=O)CC(=O)O2)cc1Cl (stereo not shown) [B(29), 2-{3-Chloro-5-[2-(2-cyclopentyl-4,6-dioxotetrahydro-2H-pyran-2-yl)ethyl]pyridin-2-yl}-2-methylpropanenitrile] | 5.28
CCc1cc(CCC2(C3CCCC3)CC(=O)CC(=O)O2)ccc1CC#N (stereo not shown) [A(102), {4-[2-(2-Cyclopentyl-4,6-dioxotetrahydro-2H-pyran-2-yl)ethyl]-2-ethylphenyl}acetonitrile] | 6.08
CCOc1cc(O)c(CC)cc1CCC1(C2CCCC2)CC(O)=C(Cc2nc3ncc(C)cn3n2)C(=O)O1 (single isomer, unassigned) [A(57), 6-Cyclopentyl-6-[2-(2-ethoxy-5-ethyl-4-hydroxyphenyl)ethyl]-4-hydroxy-3-[(6-methyl[1,2,4]triazolo[1,5-a]pyrimidin-2-yl)methyl]-5,6-dihydro-2H-pyran-2-one] | 8.52
CCc1cc(CCC2(C3CCCC3)CC(O)=C(Cc3nc4nc(C)cc(C)n4n3)C(=O)O2)ccc1NS(C)(=O)=O (stereo not shown) [A(104), N-[4-(2-{2-cyclopentyl-5-[(5,7-dimethyl[1,2,4]triazolo[1,5-a]pyrimidin-2-yl)methyl]-4-hydroxy-6-oxo-3,6dihydro-2H-pyran-2-yl}ethyl)-2-ethylphenyl]methanesulfonamide] | 8.22
C[C@@H](NC(=O)OC(C)(C)C)c1ccc(CCC2(C3CCCC3)CC(=O)CC(=O)O2)cc1 (stereo partly shown) [A(90)] | 4.37
CCc1cc(CCC2(C3CCCC3)CC(O)=C(Cc3nc4nc(C)cc(C)n4n3)C(=O)O2)cc(C(C)C)n1 (stereo not shown) [A(34), 6-Cyclopentyl-3-[(5,7-dimethyl[1,2,4]triazolo[1,5-a]pyrimidin-2-yl)methyl]-6-[2-(2-ethyl-6-isopropylpyridin-4-yl)ethyl]-4-hydroxy-5,6-dihydro-2H-pyran-2-one] | 7.92
Cc1cc(C)n2nc(CC3=C(O)CC(CCc4ccc(O)c(CC(F)(F)F)c4)(C4CCCC4)OC3=O)nc2n1 (single isomer, unassigned) [A(75), 6-cyclopentyl-3-[(5,7-dimethyl[1,2,4]triazolo[1,5-a]pyrimidin-2-yl)methyl]-4-hydroxy-6-{2-[4-hydroxy-3-(2,2,2-trifluoroethyl)phenyl]ethyl}-5,6-dihydro-2H-pyran-2-one] | 8.30
CCc1ccnc(CCC2(C3CCCC3)CC(O)=C(Cc3nc4ncc(C)cn4n3)C(=O)O2)c1 (stereo not shown) [A(16), 6-Cyclopentyl-6-[2-(4-ethylpyridin-2-yl)ethyl]-4-hydroxy-3-[(6-methyl[1,2,4]triazolo[1,5-a]pyrimidin-2-yl)methyl]-5,6-dihydro-2H-pyran-2-one] | 7.26
Cc1c(CC2=C(O)CC(CCc3ccc(C(C)(C)C#N)c(F)c3)(C3CCCC3)OC2=O)c(=O)n(-c2ccccc2)n1C (stereo not shown) [A(100), 2-[4-(2-{2-Cyclopentyl-5-[(1,5-dimethyl-3-oxo-2-phenyl-2,3-dihydro-1H-pyrazol-4-yl)methyl]-4-hydroxy-6-oxo-3,6-dihydro-2H-pyran-2-yl}ethyl)-2-fluorophenyl]-2-methylpropanenitrile] | 7.10
COC(=O)c1ccc(CCC2(C3CCCC3)CC(O)=C(Cc3nc4nc(C)cc(C)n4n3)C(=O)O2)cc1F (stereo not shown) [B(8), Methyl 4-(2-{2-cyclopentyl-5-[(5,7-dimethyl[1,2,4]triazolo[1,5-a]pyrimidin-2-yl)methyl]-4-hydroxy-6oxo-3,6-dihydro-2H-pyran-2-yl}ethyl)-2-fluorobenzoate] | 7.54
Cc1nn(C)c(Cl)c1CC1=C(O)CC(CCc2ccc(C(C)(C)C#N)c(F)c2)(C2CCCC2)OC1=O (stereo not shown) [A(96), 2-[4-(2-{5-[(5-Chloro-1,3-dimethyl-1H-pyrazol-4-yl)methyl]-2-cyclopentyl-4-hydroxy-6-oxo-3,6-dihydro-2H-pyran-2-yl}ethyl)-2-fluorophenyl]-2-methylpropanenitrile] | 8.22
CCc1cc(CCC2(C3CCCC3)CC(=O)CC(=O)O2)ccc1OCCNC(=O)OC(C)(C)C (stereo not shown) [A(68), tert-Butyl 2-{4-[2-(2-cyclopentyl-4,6-dioxotetrahydro-2H-pyran-2-yl)ethyl]-2-ethylphenoxy}ethylcarbamate] | 4.92
CCc1cc(CCC2(C3CCCC3)CC(O)=C(Cc3nc4nc(C)cc(C)n4n3)C(=O)O2)ccc1CNS(C)(=O)=O (stereo not shown) [A(128)] | 8.22
COc1cnc(C)cc1CCC1(C2CCCC2)CC(O)=C(Cc2nc3nc(C)cc(C)n3n2)C(=O)O1 (stereo not shown) [A(8), 6-Cyclopentyl-3-[(5,7-dimethyl[1,2,4]triazolo[1,5-a]pyrimidin-2-yl)methyl]-4-hydroxy-6-[2-(5methoxy-2-methylpyridin-4-yl)ethyl]-5,6-dihydro-2H-pyran-2-one] | 7.00
CCc1cc(CCC2(C3CCCC3)CC(O)=C(Cc3nc4nc(C)cc(C)n4n3)C(=O)O2)c2c(c1O)CCO2 (single isomer, unassigned; enantiomer 1) [A(12), Enantiomer 1 of 6-Cyclopentyl-3-[(5,7-dimethyl[1,2,4]triazolo[1,5-a]pyrimidin-2-yl)methyl]-6-[2-(5-ethyl-4-hydroxy-2,3-dihydro-1-benzofuran-7-yl)ethyl]-4-hydroxy-5,6-dihydro-2H-pyran-2-one] | 8.70
CCc1cc(CCC2(C3CCCC3)CC(O)=C(Cc3nc4nc(C)cc(C)n4n3)C(=O)O2)ccc1CNC(C)=O (single isomer, unassigned; enantiomer 1) [A(132), Enantiomer 1 of N-[4-(2-[2-cyclopentyl-5-[(5,7-dimethyl[1,2,4]triazolo[1,5-a]pyrimidin-2-yl)methyl]-4-hydroxy-6-oxo-3,6-dihydro-2H-pyran-2-yl}ethyl)-2-ethylbenzyl]acetamide] | 7.46
Cc1cc(C)n2nc(CC3=C(O)CC(CCc4ccc(C5(C#N)CC5)cc4)(C4CCCC4)OC3=O)nc2n1 (stereo not shown) [A(93), 1-[4(2-{2-Cyclopentyl-5-[(5,7-dimethyl[1,2,4]triazolo[1,5-a]pyrimidin-2-yl)methyl]-4-hydroxy-6-oxo-3,6-dihydro-2H-pyran-2-yl}ethyl)phenyl]cyclopropanecarbonitrile] | 8.22
Cc1cc(C)n2nc(CC3=C(O)CC(CCc4cc(CC(F)(F)F)nc(CC(F)(F)F)c4)(C4CCCC4)OC3=O)nc2n1 (single isomer, unassigned; enantiomer 1) [A(10), Enantiomer 1 of 6-{2-[2,6-Bis(2,2,2-trifluoroethyl)pyridin-4-yl]ethyl}-6-cyclopentyl-3-[(5,7-dimethyl[1,2,4]triazolo[1,5-a]pyrimidin-2-yl)methyl]-4-hydroxy-5,6-dihydro-2H-pyran-2-one] | 8.52
CCc1cc(CCC2(C3CCCC3)CC(O)=C(Cc3nc4nc(C)cc(C)n4n3)C(=O)O2)ccc1C(=O)NC (stereo not shown) [A(121), 4-(2-{2-cyclopentyl-5-[(5,7-dimethyl[1,2,4]triazolo[1,5-a]pyrimidin-2-yl)methyl]-4-hydroxy-6-oxo-3,6-dihydro-2H-pyran-2-yl}ethyl)-2-ethyl-N-methylbenzamide] | 8.22
CCc1cc(CCC2(C3CCCC3)CC(O)=C(Cc3nc4nc(C)cc(C)n4n3)C(=O)O2)c(OC)cn1 (stereo not shown) [A(3), 6-Cyclopentyl-3-[(5,7-dimethyl[1,2,4]triazolo[1,5-a]pyrimidin-2-yl)methyl]-6-[2-(2-ethyl-5-methoxypyridin-4-yl)ethyl]-4-hydroxy-5,6-dihydro-2H-pyran-2-one] | 9.00
Cc1cnc2nc(CC3=C(O)CC(CCc4ccc(C(C)(C)O)c(Cl)c4)(C4CCCC4)OC3=O)nn2c1 (stereo not shown) [B(36), 6-{2-[3-Chloro-4-(1-hydroxy-1-methylethyl)phenyl]ethyl}-6-cyclopentyl-4-hydroxy-3-[(6-methyl[1,2,4]triazolo[1,5-a]pyrimidin-2-yl)methyl]-5,6-dihydro-2H-pyran-2-one] | 7.72
Cc1cc(C)n2nc(CC3=C(O)CC(CCc4ccc(C(C)(C)O)c(C)c4)(C4CCCC4)OC3=O)nc2n1 (stereo not shown) [B(32), 6-Cyclopentyl-3-[(5,7-dimethyl[1,2,4]triazolo[1,5-a]pyrimidin-2-yl)methyl]-4-hydroxy-6-{2-[4-(1-hydroxy-1-methylethyl)-3-methylphenyl]ethyl}-5,6-dihydro-2H-pyran-2-one] | 7.04
CCc1cc(CCC2(C3CCCC3)CC(O)=C(Cc3nc4nc(C)cc(C)n4n3)C(=O)O2)ccc1Cn1cccn1 (stereo not shown) [A(112), 6-Cyclopentyl-3-[(5,7-dimethyl[1,2,4]triazolo[1,5-a]pyrimidin-2-yl)methyl]-6-{2-[3-ethyl-4-(1H-pyrazol-1-ylmethyl)phenyl]ethyl}-4-hydroxy-5,6-dihydro-2H-pyran-2-one] | 8.15
CCc1cc(CCC2(C3CCCC3)CC(O)=C(Cc3nc4nc(C)cc(C)n4n3)C(=O)O2)ccc1Oc1nccs1 (stereo not shown) [A(122), 6-Cyclopentyl-3-[(5,7-dimethyl[1,2,4]triazolo[1,5-a]pyrimidin-2-yl)methyl]-6-{2-[3ethyl-4-(1,3thiazol-2-yloxy)phenyl]ethyl}-4hydroxy-5,6dihydro-2H-pyran-2-one] | 8.40
CCc1cc(CCC2(C3CCCC3)CC(O)=C(Cc3nc4nc(C)cc(C)n4n3)C(=O)O2)ccc1CN1CCOCC1 (racemic) [A(123), 6-cyclopentyl-3-[(5,7-dimethyl[1,2,4]triazolo[1,5-a]pyrimidin-2-yl)methyl]-6-{2-[3-ethyl-4-(morpholin-4-ylmethyl)phenyl]ethyl}-4-hydroxy-5,6-dihydro-2H-pyran-2-one] | 7.41
